Assay results as given in patent publication US20060172890A1, “Liquid formulation of a plant growth regulator” (priority 2004, published 2006).
Where two headings read alike, the source gives them in different places.

Key:
[1] = Solubility of GA in solvents and solvent blends; assay type: physicochemical
Method: Gibberellic acid (GA) of 92% purity as a dry powder was used in these laboratory studies. The solvents and reagents were of reagent grade purity.
Also, the GA was easier to dissolve in the solvent blends because they were not as viscous as the single solvents. Moreover, the solvent blends had high flash points. A flash point above 140° F. is very desirable because there are less regulatory restrictions on manufacturing, transportation, and storage.

[2] = test system: corn, green bean, cucumber, tomato, ryegrass and hosta seedlings; experiment: Phytotoxicity of sprayed aqueous solvents, greenhouse tests; assay type: in vivo; details: sprayed 1 to 2% aqueous solutions; greenhouse tests with seedlings
Method: (§1) The potential for phytotoxicity (plant injury) by spraying 1 to 2% aqueous solutions of ethyl lactate and solvent blends with ethyl lactate, as well as other ingredients such as glycerol and soy methyl esters was evaluated in field tests with apple trees and in greenhouse tests with corn, green bean, cucumber, tomato, ryegrass and hosta seedlings.

apple trees = experiment: Phytotoxicity of sprayed aqueous solvents, field tests; assay type: in vivo; details: sprayed 1 to 2% aqueous solutions; field tests with apple trees
Method: as §1

pea seedlings = details: cited from earlier work
dwarf morning glory = details: cited from earlier work

Compound: C=C1C[C@]23C[C@@]1(O)CC[C@H]2[C@@]12C=C[C@H](O)[C@@](C)(C(=O)O1)[C@H]2[C@@H]3C(=O)O [GA, Gibberellic acid]
- solubility of GA in the solvent blends compared with ethyl lactate alone ([1]; 80:20 (w/w) ethyl lactate with propylene glycol or glycerol): twice as much
- amount of GA dissolved in glycerol ([1]; glycerol alone, solution very viscous and difficult to mix): a small amount
- effect of mild heating on dissolution of GA in ethyl lactate ([1]; mild heating to 60° C.): did not increase the dissolution
- amount of GA dissolved in propylene glycol ([1]; propylene glycol alone, solution very viscous and difficult to mix): a small amount
- solubility of GA in ethyl lactate alone ([1]; room temperature): approximately 2 % (w/w)

Compound: CCOC(=O)C(C)O (centres unmarked) [ethyl lactate]
- phytotoxicity (plant injury) [2]: no evidence of phytotoxicity
- phytotoxicity (plant injury) (apple trees): no evidence of phytotoxicity

Compound: gibberellin
- effect on shoot length (pea seedlings; ten micrograms applied at 3 days old): nearly doubled shoot length
- effect on shoot length (pea seedlings; ten micrograms, 9 day old seedlings): barely affected
- effect on flowering (dwarf morning glory; 2 to 20 micrograms): inhibits flowering
- effect on flowering (dwarf morning glory; application of 0.02 micrograms): promotes flowering
